Test results as given in the supplement of paper PMC8149375.
Values joined by “and” are separate entries in the source; they are usually repeats but may differ in a detail not shown here. Equal values may be shown once.

What was measured:
Details in all cases: treatment: drug alone; 5 days
786-O [1] = experiment: GI50, drug alone; higher = less potent
Description: (§1)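 Primary HTS: 8 RCC cell lines treated with 8 doses (up to 10 uM) of each library drug alone for 5 days; viability read by CellTiter-Glo and normalised to DMSO. GI50 was fitted with XLfit (4-parameter), AUC is the area under the dose-response curve, and minimum viability is the lowest fraction of DMSO viability across doses.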

UO-31 [2] = experiment: GI50, drug alone; higher = less potent
Description: as §1

ACHN [3] = experiment: GI50, drug alone; higher = less potent
Description: as §1

SN12C [4] = experiment: GI50, drug alone; higher = less potent
Description: as §1

CAKI-1 [5] = experiment: GI50, drug alone; higher = less potent
Description: as §1

769-P [6] = experiment: GI50, drug alone; higher = less potent
Description: as §1

TK-10 [7] = experiment: GI50, drug alone; higher = less potent
Description: as §1

A498 [8] = experiment: GI50, drug alone; higher = less potent
Description: as §1

786-O [9] = experiment: minimum viability across doses, drug alone, relative to DMSO (fraction); higher = less growth inhibition
Description: as §1

UO-31 [10] = experiment: as above
Description: as §1

ACHN [11] = experiment: as above
Description: as §1

SN12C [12] = experiment: as above
Description: as §1

CAKI-1 [13] = experiment: as above
Description: as §1

769-P [14] = experiment: as above
Description: as §1

TK-10 [15] = experiment: as above
Description: as §1

A498 [16] = experiment: as above
Description: as §1

786-O [17] = experiment: AUC of dose-response viability curve, drug alone (arbitrary (AUC of normalised viability)); higher = less growth inhibition
Description: as §1

UO-31 [18] = experiment: as above
Description: as §1

ACHN [19] = experiment: as above
Description: as §1

SN12C [20] = experiment: as above
Description: as §1

CAKI-1 [21] = experiment: as above
Description: as §1

769-P [22] = experiment: as above
Description: as §1

TK-10 [23] = experiment: as above
Description: as §1

A498 [24] = experiment: as above
Description: as §1

Compound | GI50, drug alone (786-O [1]) | GI50, drug alone (UO-31 [2]) [µM] | GI50, drug alone (ACHN [3]) | GI50, drug alone (SN12C [4]) | GI50, drug alone (CAKI-1 [5]) | GI50, drug alone (769-P [6]) | GI50, drug alone (TK-10 [7]) | GI50, drug alone (A498 [8]) | minimum viability across doses (786-O [9]) | minimum viability across doses (UO-31 [10]) | minimum viability across doses (ACHN [11]) | minimum viability across doses (SN12C [12]) | minimum viability across doses (CAKI-1 [13]) | minimum viability across doses (769-P [14]) | minimum viability across doses (TK-10 [15]) | minimum viability across doses (A498 [16]) | AUC of dose-response viability curve (786-O [17]) | AUC of dose-response viability curve (UO-31 [18]) | AUC of dose-response viability curve (ACHN [19]) | AUC of dose-response viability curve (SN12C [20]) | AUC of dose-response viability curve (CAKI-1 [21]) | AUC of dose-response viability curve (769-P [22]) | AUC of dose-response viability curve (TK-10 [23]) | AUC of dose-response viability curve (A498 [24])
Cn1cc(C2=C(c3ccc(Cl)cc3Cl)C(=O)NC2=O)c2ccccc21 | > 10 µM | > 10 | > 10 µM | > 10 µM | > 10 µM | 8.53 µM | > 10 µM | > 10 µM | 0.814 | 0.801 | 0.821 | 0.908 | 0.839 | 0.386 | 0.629 | 0.907 | 3.26 | 3.98 | 3.26 | 3.43 | 0.987 | 3.2 | 3.26 | 3.79
Cc1cc(Nc2cc(N3CCN(C)CC3)nc(Sc3ccc(NC(=O)C4CC4)cc3)n2)n[nH]1 [VX-680 (MK-0457, Tozasertib)] | 0.159 µM | > 10 | 0.725 µM | 1.48 µM | 1.25 µM | 2.93 µM | > 10 µM | 3.2 µM | 0.133 | 0.577 | 0.214 | 0.2 | 0.241 | 0.386 | 0.548 | 0.254 | 1.85 | 3.24 | 2.35 | 2.57 | 2.54 | 2.67 | 2.96 | 3.1
CCC(=O)N1CCN(c2ccc(-n3c(=O)ccc4cnc5ccc(-c6cnc7ccccc7c6)cc5c43)cc2C(F)(F)F)CC1 [Torin 1] | 0.0551 µM | 0.0767 | 0.0331 µM | 0.0872 µM | 0.057 µM | 0.0719 µM | > 10 µM | 0.0888 µM | 0.0473 | 0.00725 | 0.0432 | 0.127 | 0.0409 | 0.101 | 0.116 | 0.0183 | 1.39 | 1.71 | 1.13 | 1.56 | 1.32 | 1.54 | 1.33 | 1.81
CS(=O)c1ccc(-c2nc(-c3ccc(F)cc3)c(-c3ccncc3)[nH]2)cc1 (stereo unspecified) | > 10 µM | > 10 | 0.142 µM | > 10 µM | > 10 µM | > 10 µM | > 10 µM | > 10 µM | 0.774 | 1.06 | 0.577 | 0.84 | 0.931 | 0.892 | 0.713 | 1.12 | 3.47 | 4.33 | 2.51 | 3.43 | 3.69 | 3.37 | 2.98 | 4.51
NC(=O)c1ccc(N(C(N)=O)c2c(F)cccc2F)nc1-c1ccc(F)cc1F [VX-702] | > 10 µM | > 10 | > 10 µM | > 10 µM | > 10 µM | > 10 µM | > 10 µM | > 10 µM | 0.661 | 0.806 | 0.656 | 0.944 | 0.76 | 0.946 | 0.674 | 0.924 | 2.9 | 3.75 | 3.03 | 3.56 | 3.27 | 3.44 | 2.79 | 3.72
CC(C)(C)Cn1c(N)nc2ccc(-c3[nH]c(C(C)(C)C)nc3-c3ccc(F)cc3)nc21.CS(=O)(=O)O.CS(=O)(=O)O | > 10 µM | > 10 | 2.19 µM | > 10 µM | 8.16 µM | > 10 µM | 6.63 µM | > 10 µM | 0.636 | 0.733 | 0.407 | 0.811 | 0.512 | 0.709 | 0.564 | 0.972 | 2.91 | 3.5 | 2.41 | 3.15 | 2.63 | 2.98 | 2.43 | 4.16
CC(C)(O)CC(=O)NCCn1ccc2ncnc(Nc3ccc(Oc4cccc(C(F)(F)F)c4)c(Cl)c3)c21 [TAK-285] | > 10 µM | > 10 | 4.12 µM | > 10 µM | > 10 µM | 6.69 µM | 3.95 µM | > 10 µM | 0.524 | 1.21 | 0.421 | 0.81 | 0.584 | 0.407 | 0.412 | 0.852 | 2.42 | 4.9 | 2.78 | 3.17 | 3.14 | 3.04 | 2.5 | 3.69
CO[C@@H](C(=O)N1Cc2[nH]nc(NC(=O)c3ccc(N4CCN(C)CC4)cc3)c2C1)c1ccccc1 | 0.227 µM and 0.213 µM | > 10 | 1.3 µM and 0.603 µM | 1.19 µM and 0.929 µM | 1.11 µM and 0.96 µM | 8.85 µM and 8.39 µM | 2.64 µM and 1.85 µM | 8.18 µM and > 10 µM | 0.00938 and 0.00426 | 0.7 and 0.698 | 0.176 and 0.142 | 0.174 and 0.144 | 0.139 and 0.0977 | 0.463 and 0.473 | 0.174 and 0.139 | 0.516 and 0.594 | 1.52 and 1.67 | 3.34 and 3.7 | 2.19 and 2.18 | 2.38 and 2.35 | 2.45 and 2.51 | 3.09 and 3.4 | 2.6 and 2.61 | 3.26 and 3.77
CCN(CC)CCNC(=O)c1c(C)[nH]c(/C=C2\C(=O)Nc3ccc(F)cc32)c1C.O=C(O)C[C@H](O)C(=O)O [Sunitinib Malate (Sutent)] | 3.98 µM | 3.15 | 0.65 µM | 1.9 µM | 1.49 µM | 5.36 µM | 3.29 µM | 5.2 µM | 0.0182 | 0.0171 | 0.0641 | 0.0296 | 0.0138 | 0.156 | 0.186 | 0.21 | 3.62 | 3.93 | 2.33 | 2.6 | 2.77 | 3.15 | 2.82 | 3.58
